From paper PMC2635646, “Recognition Properties and Competitive Assays of a Dual Dopamine/Serotonin Selective Molecularly Imprinted Polymer” (International Journal of Molecular Sciences, 2008) come the findings set out here.

Test [1] can be described thus: Time course of binding of ergot compounds to DS-MIP (HPLC-ECD assay). As to conditions: 4:1 (v/v) methanol/water, 28 ± 1 °C. The method, then:
The specificity of binding of a group of ergoline derivatives (ergocryptine, ergocornine, ergocristine, ergonovine, agroclavine, pergolide and terguride) to DS-MIP was assessed in 4:1 (v/v) methanol/water at room temperature (28 ± 1 °C). The binding of all the ergots to DS-MIP reached a constant value within 3 h, with ~50% of the DS-MIP-analyte complex being formed by 1 h (Figure 7). […] Based on the specific binding of the ergots to DS-MIP, the tested ergots are readily distinguished into three groups, based on their chemical structures. All of the ergot derivatives tested had typical four fused rings, indolyl amine, piperidinyl amine, and N-methyl and heteroatom-containing alkylpiperidinyl substituents (except pergolide with the N-propyl substituent). The differential binding of the ergot derivatives is probably a consequence of the interaction of the piperidinyl and indolyl amines with acidic and amide functions within the polymer. The orientation of functional entities within the D and S imprinted cavities was not optimal to complement the ergot derivatives, but they existed in sufficient numbers to produce the observed binding effect.
Figure 7. Time course for the binding of ergot compounds to DS-MIP at room temperature (28 ± 1 °C). Binding studies were conducted in 4:1 (v/v) methanol/water using 12.5 mg of polymer and 12.5 μg of each ergot in a final volume of 5 mL (4.1–10.5 μM). At equilibrium, analytes were quantitated in the filtrate by chromatographic assays as described in the Experimental Section. The values shown are mean ± SD of three replicate specimens.
The binding reactivities of ergocryptine, ergocristine, ergocornine, ergonovine, agroclavine, pergolide and terguride, in an incubation medium were evaluated using a chromatographic assay. Briefly, DS-MIP particulates (2.5 mg/mL) were incubated between 0 and 13 h in 10-mL vials at room temperature by agitation with each ergot compound (2.5 μg/mL, 4.1–10.5 μM) in methanol/water (5 mL, 4:1, v/v). At pre-determined time intervals, the filtrate was analysed for the amount of unbound substance by HPLC (see below). The percentage of ergot bound to the polymer was plotted as a function of the incubation time. Each experiment was repeated three times.
A reversed phase HPLC-ECD detection method was used for assay of the ergots. A mobile phase comprising of a buffer (pH 7.4) and methanol (34:66, % v/v) was used for elution. The buffer composition was as follows: 15 mM KH2PO4, 3.75 mM sodium heptanesulfonate and 7.5 mM KCl aqueous solution adjusted to pH 7.4 by phosphoric acid. The analytical column was a Luna 5μ C18, 25 cm × 0.46 cm (Phenomenex, CA, USA). A flow-rate of 1.0 mL/min was used. The electrochemical detector was set at 0.8 V potential. Correlation coefficients for calibration curves for the ergots in the range 2–25 μg/mL ([…]) were greater than 0.999. The sensitivity of detection was about 1.0 μg/mL (1.64–4.20 μM) and the reproducibility of the peak areas of analytes was more than 95%.

Test [2] is described as follows: Competitive ligand binding assay on DS-MIP with D as fluorescent probe. As to conditions: 25 mg polymer, D 6.60 μM, 5 mL 4:1 methanol/water, 28 ± 1 °C, mean ± SD, n = 3. The method, then: (§1) In this study, DS-MIP was employed as the sorbent phase for the determination of binding characteristics of the ergot family of alkaloids by competitive ligand binding assay experiment. The ability of the various ergot alkaloids (ergocryptine, ergocornine, ergocristine, ergonovine, agroclavine, pergolide and terguride) to displace bound D and S from the binding sites was measured. Figures 8(a,b) show competitive binding assays with the ergots in the presence of D and S as fluorescent probes. The typical sigmoid calibration curves were obtained for both the D ligand and the S ligand. […] Clearly, the ergot derivatives are able to act as competitors at the DS-MIP binding sites.
(§2) Figure 8. Plots of the ratio of the normalized signal (B/Bî) for MIP to that obtained for NIP against the logarithm of the ergot concentrations for the competitive ligand binding assay using DS-MIP as adsorbent phase and (a) D and (b) S as a fluorescent probe. The values shown are mean ± SD of three replicate specimens.
(§3) Seven ergoline compounds (ergocryptine, ergocristine, ergocornine, ergonovine, agroclavine, pergolide and terguride) were assessed for their ability to displace D or S bound to DS-MIP. DS-MIP or NIP particles (25 mg) were mixed with 6.25 μg of either D (or S) and varying amounts of ergot (final concentration: 0.02 - 500 μg/mL or 0.03 - 890.20 μM) in the suspension solvent (4:1, v/v methanol/water) up to a final volume of 5 ml. The mixture was incubated for 8 h at room temperature, maintaining constant stirring. The changes in fluorescence intensity of D probe in solution were monitored at 320 nm following excitation at 279 nm; for the S probe in solution, monitoring was at 335 nm after excitation at 300 nm. The experimental signals were normalized as: B/Bî, where B is the fluorescence intensity measured in the presence of increasing ergot concentrations and Bî is the signal in the absence of the ergot compound. The ratio of the normalized signal for MIP to that obtained for NIP was plotted as a function of the logarithm of the competitor concentration. Statistical analysis of concentration-response curves was performed by using the computer program GraphPad software, which calculates the lower and upper plateaus, the slope, and the IC50, concentration of an inhibitor producing 50% inhibition. An apparent inhibition constant (Ki) value was calculated using eq (3): (3) Ki=IC50/(1+[L]/Kd) where Ki = apparent inhibitor constant, [L] = free concentration of dopamine or serotonin, and Kd = apparent dissociation constant of a given MIP for D (or S). All experiments were performed in triplicate.

The nature of test [3]: Competitive ligand binding assay on DS-MIP with S as fluorescent probe. Conditions: 25 mg polymer, S 5.90 μM, 5 mL 4:1 methanol/water, 28 ± 1 °C, mean ± SD, n = 3. On the procedure:
as §1, §2, §3

Test [4] deals with dopamine receptors derived from rat hypothalamus. The test can be described thus: Displacement of D probe from natural receptor. The format is binding, male-Wistar rat. Conditions: 10 mg protein, 0.25 μmole D in 1 mL (250 μM), 37 °C, mean ± SD, n = 4; read-out: Ki, D ligand, Rat hypothalamus. On the procedure: (§4) The equilibrium binding constants of the ergots on dopamine and serotonin receptors derived from rat hypothalamus was examined in a displacement assay using the added D and S as the molecular probes. The male-Wistar rat hypothalami receptors were isolated using a previously described procedure. The receptor pellets were washed with 50 mM Tris HCl until the endogenous D and S are no longer found in the rinse as examined by the fluorescence method described in the binding study. The pellets were then re-suspended in 50 mM Tris HCl with 0.5 mM Na2EDTA, 0.1% Na ascorbate before use. The protein content of the receptor pellets was verified by using the procedure of Bradford. Saturation experiments for the rat hypothalamus receptor were carried out by varying the concentration of D or S ligand in a 50 mM Tris HCl with 0.5 mM Na2EDTA and 0.1% Na ascorbate solution at 37 °C. The D and S binding at various concentrations was determined, using the fluorescence spectroscopic method for assay of the unbound probe as in the binding study.
(§5) The ability of 6–8 concentrations of test ergot (0.1–500 μg/mL or 0.16–890.20 μM) for typical profiles) to displace 0.25 μmole D and S probes was measured in drug displacement studies. […] To examine the equilibrium binding constant for the ergots, the unbound D and S probes was measured by fluorescence spectroscopy with the use of cation exchange resin to separate the protein bound and unbound probes. All experiments were performed four times using 50 mM Tris HCl with 0.5 mM Na2EDTA, 0.1% Na ascorbate as the medium, to which 10 mg of protein was added giving a final volume of 1 mL. The tubes were allowed to equilibrate for 30 min at 37 °C before filtering with a 0.45 μm cellulose acetate syringe filter (Whatman, NJ, USA) and were washed with two 5 mL ice-cold Tris-buffer. The filters were lyophilized and analysed for free probes. The supernatant aliquots were then passed through small columns of Amberlite CG-50 as previously reported. The 3 mL of formic acid-ethanol (1:3, v/v) eluates containing the analytes were evaporated to dryness in a polyethylene vial and the residues reconstituted with methanol (5 mL) before assay using fluorescence spectrometry. The binding of D and S probes in the presence of the ergots was calculated and plotted to the ergot concentrations for determination of IC50. An apparent Ki value was calculated in the same manner as described for the competitive ligand binding assay with DS-MIP.

In test [5] the target is serotonin receptors derived from rat hypothalamus. The experiment in a line: Displacement of S probe from natural receptor. It is filed as binding, male-Wistar rat. Conditions: 10 mg protein, 0.25 μmole S in 1 mL (250 μM), 37 °C, mean ± SD, n = 4; read-out: Ki, S ligand, Rat hypothalamus. The method, then:
as §4, §5

Test [6] can be described thus: 1H-NMR titration of template/functional monomer complexation. It is filed as binding. Conditions: 1:1 complex of D with single monomer, d6-DMSO, 25 °C. An excerpt: A mixture of methanol and water (4:1, v/v) was chosen as the porogen solvent for the D and S templates, as the hydrochloride salts were soluble only in polar solvents. The strength and positioning of the monomer-template interactions are of importance in developing materials with good molecular recognition properties. For the current work, the functional monomers and cross-linker had been constructed into the MIP structure with a view toward obtaining an efficient recognition system in a polar medium. MAA and ACM were generally used as functional monomers for the imprinting process. Both D and S have a phenolic hydroxyl and the nitrogen atom(s) of the amine group(s) acts as a hydrogen donor-acceptor moiety for binding functional monomers with a corresponding hydrogen bonding pattern. […] However, the huge excess of water and methanol that would be form H-bonds in competition with template and monomer, would reduce binding energy between template and monomer. […] The MBAA cross-linker also forms hydrogen bonds with the carboxylic acid and amino groups of the templates. Figure 2 illustrates the dual dopamine/serotonin molecular recognition site generation in this work.
The change in chemical shifts of proton resonances as a function of D (or S) concentrations was studied in DMSO-d6.

Test [7] has as its system dopamine receptors derived from rat hypothalamus. Conditions: D ligand, 50 mM Tris HCl, 37 °C, mean ± SD, n = 3. On the procedure:
as §4

In general, Ki refers to the dissociation constant of the complex between target and ligand, obtained from inhibition or displacement.

Each structure is given as a SMILES string. Counter-ions that a name gives are not always drawn. Like-named read-outs stand apart in the source and are kept apart here.

In the case of `CC1=C[C@@H]2c3cccc4[nH]cc(c34)C[C@H]2N(C)C1` [Agroclavine, agroclavine], the “binding with DS-MIP” value in test [1] (DS-MIP 2.5 mg/mL, ergot 2.5 μg/mL) is reported as 70%. Also, the Ki in test [2] came to 0.4 ± 0.01 µM; in test [3], 5.31 ± 0.22 µM; in test [4] it was 1.5 ± 0.2 nM; in test [5] it was 0.0012 ± 0.0001 µM.
Take `NCCc1ccc(O)c(O)c1` [D, Dopamine hydrochloride]: the Kd in test [6] (read-out: apparent dissociation constant (app. Kdiss) of complex with ACM) was 1980 ± 100 µM; in test [6] (read-out: apparent dissociation constant (app. Kdiss) of complex with MAA), 2120 ± 200 µM; in test [7] (read-out: dissociation constant (Kd)), 0.00053 ± 0.00015 µM. Also, the “receptor binding (Bmax)” value in test [7] amounted to 1.50 ± 0.09 pmol/mg protein.
As to `CC(C)[C@H]1C(=O)N2CCC[C@H]2[C@]2(O)O[C@](NC(=O)[C@@H]3C=C4c5cccc6[nH]cc(c56)C[C@H]4N(C)C3)(C(C)C)C(=O)N12` [Ergocornine, ergocornine], the “binding to DS-MIP, fold lower than agroclavine” value in test [1] was “about 2 fold”. The inhibition constant (Ki) in test [2] is 217 ± 2.59 µM; in test [3] it was 27.2 ± 0.78 µM; in test [4], 10.4 ± 0.2 nM; in test [5], 0.02 ± 0.0001 µM.
Regarding `CC(C)[C@@]1(NC(=O)[C@@H]2C=C3c4cccc5[nH]cc(c45)C[C@H]3N(C)C2)O[C@@]2(O)[C@@H]3CCCN3C(=O)[C@H](Cc3ccccc3)N2C1=O` [Ergocristine, ergocristine], the “binding to DS-MIP, fold lower than agroclavine” value in test [1] is reported as “about 2 fold”. For the same compound, the Ki in test [2] amounted to 141 ± 1.47 µM; in test [3] it was 19.3 ± 0.6 µM; in test [4], 7.6 ± 0.1 nM; in test [5] it was 0.0068 ± 0.0002 µM.
Regarding `CC(C)C[C@H]1C(=O)N2CCC[C@H]2[C@]2(O)O[C@](NC(=O)[C@@H]3C=C4c5cccc6[nH]cc(c56)C[C@H]4N(C)C3)(C(C)C)C(=O)N12` [Ergocryptine, ergocryptine], the “binding to DS-MIP, fold lower than agroclavine” value in test [1] is given as “about 2 fold”. Further, the Ki in test [2] stood at 124.9 ± 1.22 µM; in test [3], 24.9 ± 0.69 µM; in test [4] it was 2.8 ± 0.2 nM; in test [5] it was 0.01 ± 0.0004 µM.
In the case of `C[C@@H](CO)NC(=O)[C@@H]1C=C2c3cccc4[nH]cc(c34)C[C@H]2N(C)C1` [Ergonovine, ergonovine maleate], the “binding to DS-MIP, fold lower than agroclavine” value in test [1] is on record as ~ 1.25 fold. Also, the Ki in test [2] is 69.57 ± 0.51 µM; in test [3] it was 14.7 ± 0.29 µM; in test [4] it was 2.5 ± 0.1 nM; in test [5], 0.0012 ± 0.0001 µM.
Consider `CCCN1C[C@H](CSC)C[C@@H]2c3cccc4[nH]cc(c34)C[C@H]21` [Pergolide, pergolide mesylate], for which the “binding to DS-MIP, fold lower than agroclavine” value in test [1] is given as ~ 1.25 fold. In addition, the Ki in test [2] stood at 0.2 ± 0.01 µM; in test [3], 12.78 ± 0.09 µM; in test [4], 0.7 ± 0.1 nM; in test [5], 0.006 ± 0.0002 µM.
As to `CCN(CC)C(=O)N[C@H]1C[C@@H]2c3cccc4[nH]cc(c34)C[C@H]2N(C)C1` [Terguride, terguride], in test [1], the “binding to DS-MIP, fold lower than agroclavine” value was ~ 1.25 fold. Also, the Ki in test [2] came to 0.14 ± 0.01 µM; in test [3] it was 7.79 ± 0.17 µM; in test [4] it was 0.03 ± 0.005 nM; in test [5], 0.0013 ± 0.0001 µM.
